In patent US20160067187A1, “Methods for Treating or Preventing Migraines” (Validus Pharmaceuticals LLC, priority 2005, published 2016):

Columns and labels:
[1] = test system: patients with tension-type headaches; experiment: Study of treatment of chronic tension-type headache (Example 5); assay type: in vivo, human
From the text: (§1) This study is designed to evaluate the efficacy of isocarboxazid in preventing migraines and in the treatment of chronic tension-type headache.
(§2) A total of 61 patients suffering from chronic tension-type headache are recruited. […] While on this therapy, 35 of the 42 migraine patients and 16 of the 17 patients with tension-type headaches are experiencing good or very good improvement in their symptoms. […] In tension-type headaches, the effect may occur at the earliest 3-6 weeks and in the case of migraines at the earliest 6-8 weeks after the start of treatment. The therapeutic result is independent of any concurrent depression.

acute migraine headaches = experiment: Double blind, placebo-controlled single dose study in acute migraine headaches (Example 4); assay type: in vivo, human; conditions: 20 and 40 mg single doses; after 2 hrs and 24 hours
Description: A double blind, multicenter, randomized, placebo-controlled single dose study to evaluate the efficacy of isocarboxazid in the treatment of acute migraine headaches is conducted.
The study consists of a screening visit, at home treatment of a single migraine attack, and a follow up visit 1-5 days following treatment. In addition to safety evaluations, the patients are evaluated for efficacy based on superiority over the placebo at 2 hour and 24 hour periods
after dosing for a) pain relief; b) incidence of photophobia; c) incidence of phonophobia; and d) incidence of nausea.
The results are collected from 30 patients.

[2] = test system: patients suffering from migraine without aura; experiment: Double blind, randomized, placebo-controlled study in migraine without aura (Example 3); assay type: in vivo, human; conditions: 10 mg to 40 mg per day, oral
From the text: (§3) A total of 16 patients participate in the study in […]. The age of the recruited patients ranges between 18 years and 75 years. Both male and female patients are selected for the study. Recruitment period for the study is 5 months.
(§4) Isocarboxazid is prescribed as a prophylaxis to one group of patients. Also, isocarboxazid is prescribed after the expression of symptoms to another group of patients. […] Dose increments are based on the investigator's judgment of the patient's response. After 4 weeks of therapy on 20 mg per day, the doses may be increased to 30 mg per day, 10 mg in the AM and 20 mg in the PM. After 4 weeks of therapy on 30 mg per day, doses may be increased to 40 mg per day, 20 mg in the AM and 20 mg in the PM. After 4 weeks of 40 mg per day, the doses may be increased to 50 mg per day, 20 mg in the AM and 30 mg in the PM. After 4 weeks of 50 mg per day, the doses may be increased to 60 mg per day, 30 mg in the AM and 30 mg in the PM. The duration of the medication treatment is a total of 20 weeks.
Patients in the study are diagnosed for the symptoms of migraine without aura. Diagnosis is performed according to the criteria set forth by the International Headache Society. […]
(§5) In order to determine the efficacy of isocarboxazid, pain intensity is evaluated on an assessment scale and recoded in an assessment sheet. […]
(§6) The collected data are statistically analyzed.

[3] = test system: patients suffering from migraine with aura; experiment: Double blind, randomized, placebo-controlled study in migraine with aura (Example 2); assay type: in vivo, human; conditions: 10 mg to 40 mg per day, oral
Description: A double blind, multicenter, randomized, placebo-controlled study is performed to evaluate the efficacy of isocarboxazid in treating patients suffering from migraine with aura.
as §3
as §4, with “weeks. […]” for “weeks.”
as §5, §6

[4] = human, in vivo, inhaled or intranasal, 10 mg
migraine patients = experiment: Study of preventing migraines (Example 5); assay type: in vivo, human
From the text: as §1, §2

[5] = test system: subjects with migraine headache; experiment: Open-label pilot study of safety, effectiveness and tolerability in the prophylactic treatment of migraine (Example 1); assay type: in vivo, human
Description: An open-label pilot study was performed to evaluate the safety, effectiveness and tolerability of the MAOI isocarboxyzid (Marplan®) in the prophylactic treatment of migraine.
Male and female subjects 18-60 years of age were recruited. […] The subject must have had approximately 3-12 migraine headaches per month for the 3 months prior to entering the screening period. Major exclusion criteria included a history of cluster headache, migraine with prolonged aura, and atypical forms of migraine. […] Concomitant use of tryptans, NSAID's, antidepressants and other commonly used ant-migraine agents was prohibited. The Headache Assessment Scale and other assessments were recorded at Baseline and Weeks 1, 4, 8, 12, 16 and 20. Primary safety and efficacy analysis were based on the intention-to-treat population. Safety data included laboratory data, adverse events, vital signs, and ECG's. The primary efficacy measure was within-subject change from baseline in migraine frequency.
Fourteen subjects had at least on post-baseline assessment, and seven subjects completed the full 20 weeks of treatment (Table 1a,b). […] Five subjects (31%) withdrew due to adverse events. […] The mean does for completers at the end of study was 38.6 mg (Table 2). […] At baseline, subjects reported an average migraine frequency of 5.2 +1.9 attacks/month. […] At week 20, a frequency of 0.4±0.7 (p<0.001) was observed. […] Because of the small number of subjects and relatively high dropout rate, an analysis of the data using a Last Observation Carried Forward (LOF) procedure was undertaken.

Compound: Cc1cc(C(=O)NNCc2ccccc2)no1 [isocarboxazid]
- earliest occurrence of the effect after the start of treatment [1]: 3-6 weeks
- patients experiencing good or very good improvement in their symptoms ([1]; 10 to 60 mg daily dose, about 8 months on average): 16 of the 17
- effect versus placebo in treating acute headaches (acute migraine headaches): superior effect over a placebo
- effect versus placebo in treating and preventing migraine without aura [2]: superior effect over the placebo
- effect versus placebo in treating and preventing migraine with aura [3]: superior effect over the placebo
- share of the maximum plasma concentration (Cmax) reached at 30 minutes after administration [4]: 60%
- patients experiencing good or very good improvement in their symptoms (migraine patients; migraine patients, 10 to 60 mg daily dose, about 8 months on average): 35 of the 42
- earliest occurrence of the effect after the start of treatment (migraine patients; migraines): 6-8 weeks
- Discontinued (Lack of efficacy), number of subjects (%) ([5]; 16 subjects at baseline visit, 20 weeks): 0 (0%)
- Change from baseline (mean ± SD) in migraine frequency ([5]; LOCF, n 14, p-value 7.0 × 10^−6): 3.8 ± 2.8
- Change from baseline (mean ± SD) in migraine frequency ([5]; Observed cases, n 7, p-value 1.5 × 10^−7): 5.9 ± 1.5
- reduction in migraine frequency during the course of treatment ([5]; all subjects): significant reduction
- Adverse Event: Anxiety, Number ([5]; both, human, in vivo, 20 weeks): 1
- Adverse Event: Fatigue, Number ([5]; both, human, in vivo, 20 weeks): 2
- Adverse Event: Insomnia, Number ([5]; both, human, in vivo, 20 weeks): 1
- Adverse Event: Nosebleed, Number ([5]; both, human, in vivo, 20 weeks): 1
- Discontinued (Adverse Experience), number of subjects (%) ([5]; both, human, in vivo, 20 weeks): 5 (31%)
- subjects who withdrew due to adverse events ([5]; both, human, in vivo, 20 weeks): 31%
- reduction in migraine frequency (clinically significant response) reached by all completers ([5]; by week 16, all subjects completing the study, FIG. 3): ≥ 50%
- maximum dose tolerated by most subjects ([5]; most subjects, FIG. 1, titrated from 20 mg per day up to 60 mg per day): 20 to 40 mg/day
- reductions in migraine frequency by week 8 ([5]; week 8, FIG. 2): significant reductions
- migraine frequency at week 20 ([5]; week 20, baseline 5.2 +1.9 attacks/month, p<0.001): 0.4±0.7 attacks/month
